{
  "source": "PubChem BioAssay (NCI)",
  "assay_in_all_cases": "NCI-60 cell line screen, 48 h",
  "key": {"786-0 renal": {"system": "786-0 renal"}, "BT-549 breast": {"system": "BT-549 breast"}, "CCRF-CEM leukemia": {"system": "CCRF-CEM leukemia"}, "HCT-15 colon": {"system": "HCT-15 colon"}, "KM12 colon": {"system": "KM12 colon"}, "LOX IMVI melanoma": {"system": "LOX IMVI melanoma"}, "NCI-H522 lung": {"system": "NCI-H522 lung"}, "OVCAR-8 ovarian": {"system": "OVCAR-8 ovarian"}, "SK-MEL-28 melanoma": {"system": "SK-MEL-28 melanoma"}, "SNB-19 CNS": {"system": "SNB-19 CNS"}},
  "note": "Where “and” joins values, the source holds several entries; their conditions need not be identical. Equal values may be shown once.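 Compound exposure: 48 hours, 5 concentrations, 96-well plates. Here, GI50 denotes the concentration required for 50% inhibition of growth. TGI: total growth inhibition.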",
  "data": [
    {"smiles": "C[C@@H]1C[C@@H]([C@H](O)CC2CC(=O)NC(=O)C2)C(=O)[C@@H](C)C1", "values": [
      {"measurement": "GI50", "setting": "786-0 renal", "result": 186, "unit": "nM"},
      {"measurement": "TGI", "setting": "786-0 renal", "result": "3310 nM and 3560 nM"},
      {"measurement": "GI50", "setting": "BT-549 breast", "result": 927, "unit": "nM"},
      {"measurement": "TGI", "setting": "BT-549 breast", "result": 9010, "unit": "nM"},
      {"measurement": "GI50", "setting": "CCRF-CEM leukemia", "result": 95.8, "unit": "nM"},
      {"measurement": "TGI", "setting": "CCRF-CEM leukemia", "result": "1150 nM and 406 nM"},
      {"measurement": "GI50", "setting": "HCT-15 colon", "result": 284, "unit": "nM"},
      {"measurement": "TGI", "setting": "HCT-15 colon", "result": "15900 nM and 9960 nM"},
      {"measurement": "GI50", "setting": "KM12 colon", "result": 215, "unit": "nM"},
      {"measurement": "GI50", "setting": "LOX IMVI melanoma", "result": 258, "unit": "nM"},
      {"measurement": "TGI", "setting": "LOX IMVI melanoma", "result": "3530 nM and 816 nM"},
      {"measurement": "GI50", "setting": "NCI-H522 lung", "result": 126, "unit": "nM"},
      {"measurement": "TGI", "setting": "NCI-H522 lung", "result": "643 nM and 549 nM"},
      {"measurement": "GI50", "setting": "OVCAR-8 ovarian", "result": 202, "unit": "nM"},
      {"measurement": "TGI", "setting": "OVCAR-8 ovarian", "result": "1700 nM and 1270 nM"},
      {"measurement": "GI50", "setting": "SK-MEL-28 melanoma", "result": 249, "unit": "nM"},
      {"measurement": "TGI", "setting": "SK-MEL-28 melanoma", "result": "2010 nM and 1340 nM"},
      {"measurement": "GI50", "setting": "SNB-19 CNS", "result": 282, "unit": "nM"},
      {"measurement": "TGI", "setting": "SNB-19 CNS", "result": "15800 nM and > 94600 nM"}
    ]}
  ]
}
